{
  "source": "patent US20030144345A1",
  "about": "“Treatment of metabolic diseases with soraphen derivatives” (priority 2001, published 2003)",
  "key": {"HepG2 cells": {"system": "HepG2 cells", "assay": "Fatty acid (palmitate) oxidation assay with human liver hepatoma cells HepG2", "format": "cell-based", "conditions": "HepG2, 10 μM", "protocol": "For routine passaging, HepG2 cells (American Type Culture Collection, ATCC) were grown in T75 flasks (Falcon, #353136) in 15 ml of Dulbecco's modified Eagle medium (DMEM, Sigma, #D5796), containing 10% heat inactivated fetal bovine serum (FBS, Summit Biotechnology, #S-100-05) and 1% Penicillin/Streptomycin (Sigma, #P4333). […] The cells were passaged once per week by trypsinization and an additional change of medium was done after 3 to 4 days after passaging."}, "Wistar rats": {"system": "Wistar rats", "assay": "Lipid utilization by indirect calorimetry", "format": "in vivo, rat", "source_text": "b) Indirect calorimetry. Substrate utilization can be measured indirectly from respiratory gas exchanges. The method is based on the measurement of oxygen (O2) consumption and carbon-dioxide (CO2) release, both originating from the oxidation of the energetic substrates that progressively release the chemical energy stored in the carbon-hydrogen bonds of carbohydrates, lipids (and proteins). The amounts of carbohydrate and lipid being oxidized in the body at any given time can be calculated from the volumes of 02 consumption and CO2 exhalation by laboratory animals (and humans) in metabolic chambers. For a review of the methodology and the theoretical basis of indirect calorimetry, see Ferrannini, Metabolism, 37, 287-301, 1988.\nAn established, commercially available metabolic chamber apparatus (Oxymax, columbus Instruments, Ohio) was used to determine the gas exchange of vehicle-treated and compound (Ia)-treated Wistar rats in order to make precise and noninvasive measurements of the changes in the nature of the energetic substrate being oxidized by Wistar rats. Table 5 summarizes the data of the calculated lipid utilization determined for animals treated with two doses of compound (Ia), 10 and 30 mg/kg, administered subcutaneously 30 min. before starting the gas exchange measurements."}, "differentiated L6 cells": {"system": "differentiated L6 cells", "assay": "Fatty acid (palmitate) oxidation assay with differentiated rat L6 muscle cells;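 note: differentiated rat L6 myotubes fed [14C]-palmitate, with oxidation read as 14CO2 trapped on filters and counted by liquid scintillation after 3 to 8 h at 37 °C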"}, "[1]": {"conditions": "L6, repeated test Table 3, 0.002 μM"}, "[2]": {"conditions": "L6, repeated test Table 3, 0.02 μM"}, "[3]": {"conditions": "L6, repeated test Table 3, 0.2 μM"}},
  "data": [
    {"smiles": "CO[C@H]1CCCC[C@@H](c2ccccc2)OC(=O)[C@@H](C)C2(O)O[C@H]([C@@H](C)[C@H](O)[C@H]2OC)[C@@H](C)/C=C/[C@H]1OC", "note": "[Cpd (Ia), Soraphen A 1-α]", "values": [
      {"measurement": "Fold stimulation over palmitate oxidation rate in the absence of test compounds", "setting": "HepG2 cells", "result": 3.5, "unit": "fold"},
      {"measurement": "Palmitate oxidation rate", "setting": "HepG2 cells", "result": "13.7 +/− 0.7 pmol · h^−1 · well^−1"},
      {"measurement": "% increase over vehicle", "setting": "Wistar rats; 10 mg/kg s.c., 33.5 min", "result": 12.6, "unit": "%"},
      {"measurement": "Accumulated lipid utilization", "setting": "Wistar rats; 10 mg/kg s.c., 33.5 min", "result": 0.24, "unit": "g/kg body weight"},
      {"measurement": "% increase over vehicle", "setting": "Wistar rats; 10 mg/kg s.c., 67 min", "result": 9.6, "unit": "%"},
      {"measurement": "Accumulated lipid utilization", "setting": "Wistar rats; 10 mg/kg s.c., 67 min", "result": 0.49, "unit": "g/kg body weight"},
      {"measurement": "% increase over vehicle", "setting": "Wistar rats; 10 mg/kg s.c., 100.5 min", "result": 9.8, "unit": "%"},
      {"measurement": "Accumulated lipid utilization", "setting": "Wistar rats; 10 mg/kg s.c., 100.5 min", "result": 0.76, "unit": "g/kg body weight"},
      {"measurement": "% increase over vehicle", "setting": "Wistar rats; 10 mg/kg s.c., 134 min", "result": 9.8, "unit": "%"},
      {"measurement": "Accumulated lipid utilization", "setting": "Wistar rats; 10 mg/kg s.c., 134 min", "result": 1.03, "unit": "g/kg body weight"},
      {"measurement": "% increase over vehicle", "setting": "Wistar rats; 10 mg/kg s.c., 167.5 min", "result": 9.2, "unit": "%"},
      {"measurement": "Accumulated lipid utilization", "setting": "Wistar rats; 10 mg/kg s.c., 167.5 min", "result": 1.31, "unit": "g/kg body weight"},
      {"measurement": "% increase over vehicle", "setting": "Wistar rats; 10 mg/kg s.c., 201 min", "result": 8.4, "unit": "%"},
      {"measurement": "Accumulated lipid utilization", "setting": "Wistar rats; 10 mg/kg s.c., 201 min", "result": 1.61, "unit": "g/kg body weight"},
      {"measurement": "% increase over vehicle", "setting": "Wistar rats; 10 mg/kg s.c., 234.5 min", "result": 7.8, "unit": "%"},
      {"measurement": "Accumulated lipid utilization", "setting": "Wistar rats; 10 mg/kg s.c., 234.5 min", "result": 1.89, "unit": "g/kg body weight"},
      {"measurement": "% increase over vehicle", "setting": "Wistar rats; 10 mg/kg s.c., 268 min", "result": 7.9, "unit": "%"},
      {"measurement": "Accumulated lipid utilization", "setting": "Wistar rats; 10 mg/kg s.c., 268 min", "result": 2.17, "unit": "g/kg body weight"},
      {"measurement": "% increase over vehicle", "setting": "Wistar rats; 10 mg/kg s.c., 301.5 min", "result": 7.7, "unit": "%"},
      {"measurement": "Accumulated lipid utilization", "setting": "Wistar rats; 10 mg/kg s.c., 301.5 min", "result": 2.44, "unit": "g/kg body weight"},
      {"measurement": "% increase over vehicle", "setting": "Wistar rats; 10 mg/kg s.c., 335 min", "result": 7.2, "unit": "%"},
      {"measurement": "Accumulated lipid utilization", "setting": "Wistar rats; 10 mg/kg s.c., 335 min", "result": 2.73, "unit": "g/kg body weight"},
      {"measurement": "% increase over vehicle", "setting": "Wistar rats; 10 mg/kg s.c., 368.5 min", "result": 6.3, "unit": "%"},
      {"measurement": "Accumulated lipid utilization", "setting": "Wistar rats; 10 mg/kg s.c., 368.5 min", "result": 3.03, "unit": "g/kg body weight"},
      {"measurement": "% increase over vehicle", "setting": "Wistar rats; 30 mg/kg s.c., 33.5 min", "result": 28.4, "unit": "%"},
      {"measurement": "Accumulated lipid utilization", "setting": "Wistar rats; 30 mg/kg s.c., 33.5 min", "result": 0.27, "unit": "g/kg body weight"},
      {"measurement": "% increase over vehicle", "setting": "Wistar rats; 30 mg/kg s.c., 67 min", "result": 19.2, "unit": "%"},
      {"measurement": "Accumulated lipid utilization", "setting": "Wistar rats; 30 mg/kg s.c., 67 min", "result": 0.54, "unit": "g/kg body weight"},
      {"measurement": "% increase over vehicle", "setting": "Wistar rats; 30 mg/kg s.c., 100.5 min", "result": 14.5, "unit": "%"},
      {"measurement": "Accumulated lipid utilization", "setting": "Wistar rats; 30 mg/kg s.c., 100.5 min", "result": 0.79, "unit": "g/kg body weight"},
      {"measurement": "% increase over vehicle", "setting": "Wistar rats; 30 mg/kg s.c., 134 min", "result": 13.2, "unit": "%"},
      {"measurement": "Accumulated lipid utilization", "setting": "Wistar rats; 30 mg/kg s.c., 134 min", "result": 1.06, "unit": "g/kg body weight"},
      {"measurement": "% increase over vehicle", "setting": "Wistar rats; 30 mg/kg s.c., 167.5 min", "result": 12.5, "unit": "%"},
      {"measurement": "Accumulated lipid utilization", "setting": "Wistar rats; 30 mg/kg s.c., 167.5 min", "result": 1.35, "unit": "g/kg body weight"},
      {"measurement": "% increase over vehicle", "setting": "Wistar rats; 30 mg/kg s.c., 201 min", "result": 11.8, "unit": "%"},
      {"measurement": "Accumulated lipid utilization", "setting": "Wistar rats; 30 mg/kg s.c., 201 min", "result": 1.66, "unit": "g/kg body weight"},
      {"measurement": "% increase over vehicle", "setting": "Wistar rats; 30 mg/kg s.c., 234.5 min", "result": 11.7, "unit": "%"},
      {"measurement": "Accumulated lipid utilization", "setting": "Wistar rats; 30 mg/kg s.c., 234.5 min", "result": 1.96, "unit": "g/kg body weight"},
      {"measurement": "% increase over vehicle", "setting": "Wistar rats; 30 mg/kg s.c., 268 min", "result": 12.2, "unit": "%"},
      {"measurement": "Accumulated lipid utilization", "setting": "Wistar rats; 30 mg/kg s.c., 268 min", "result": 2.26, "unit": "g/kg body weight"},
      {"measurement": "% increase over vehicle", "setting": "Wistar rats; 30 mg/kg s.c., 301.5 min", "result": 12.5, "unit": "%"},
      {"measurement": "Accumulated lipid utilization", "setting": "Wistar rats; 30 mg/kg s.c., 301.5 min", "result": 2.55, "unit": "g/kg body weight"},
      {"measurement": "% increase over vehicle", "setting": "Wistar rats; 30 mg/kg s.c., 335 min", "result": 12.3, "unit": "%"},
      {"measurement": "Accumulated lipid utilization", "setting": "Wistar rats; 30 mg/kg s.c., 335 min", "result": 2.86, "unit": "g/kg body weight"},
      {"measurement": "% increase over vehicle", "setting": "Wistar rats; 30 mg/kg s.c., 368.5 min", "result": 11.5, "unit": "%"},
      {"measurement": "Accumulated lipid utilization", "setting": "Wistar rats; 30 mg/kg s.c., 368.5 min", "result": 3.18, "unit": "g/kg body weight"},
      {"measurement": "Duration of effect on lipid oxidation", "setting": "Wistar rats; 10 and 30 mg/kg s.c.", "result": "at least 6 hours"},
      {"measurement": "Fold stimulation", "setting": "differentiated L6 cells; L6, Table 2, 0.02 μM", "result": 1.8, "unit": "fold"},
      {"measurement": "Palmitate oxidation rate", "setting": "differentiated L6 cells; L6, Table 2, 0.02 μM", "result": "16.4 +/− 1.0 pmol · h^−1 · well^−1"},
      {"measurement": "Fold stimulation", "setting": "differentiated L6 cells; L6, Table 2, 0.2 μM", "result": 1.8, "unit": "fold"},
      {"measurement": "Palmitate oxidation rate", "setting": "differentiated L6 cells; L6, Table 2, 0.2 μM", "result": "15.8 +/− 0.5 pmol · h^−1 · well^−1"},
      {"measurement": "Fold stimulation", "setting": "differentiated L6 cells; L6, Table 2, 2 μM", "result": 1.7, "unit": "fold"},
      {"measurement": "Palmitate oxidation rate", "setting": "differentiated L6 cells; L6, Table 2, 2 μM", "result": "14.9 +/− 0.4 pmol · h^−1 · well^−1"},
      {"measurement": "Fold stimulation", "setting": "differentiated L6 cells; [1]", "result": 1.5, "unit": "fold"},
      {"measurement": "Palmitate oxidation rate", "setting": "differentiated L6 cells; [1]", "result": "8.3 +/− 0.0 pmol · h^−1 · well^−1"},
      {"measurement": "Fold stimulation", "setting": "differentiated L6 cells; [2]", "result": 2.2, "unit": "fold"},
      {"measurement": "Palmitate oxidation rate", "setting": "differentiated L6 cells; [2]", "result": "12.1 +/− 1.0 pmol · h^−1 · well^−1"},
      {"measurement": "Fold stimulation", "setting": "differentiated L6 cells; [3]", "result": 2.7, "unit": "fold"},
      {"measurement": "Palmitate oxidation rate", "setting": "differentiated L6 cells; [3]", "result": "14.6 +/− 0.1 pmol · h^−1 · well^−1"},
      {"measurement": "EC50", "setting": "differentiated L6 cells; Rattus norvegicus, L6, read-out: EC50 for stimulation of palmitate oxidation", "result": "0.002 to 0.02", "unit": "µM"}
    ]}
  ]
}
